Reference: US20190010158A1, “ANTITUMOR EFFECT POTENTIATOR COMPRISING PYRROLOPYRIMIDINE COMPOUND” (TAIHO PHARMACEUTICAL CO., LTD, priority 2015, published 2019)

Assays:
U266B1 = test: Example 1: combined use with proteasome inhibitor, cell growth inhibition test (IC50 ratio, CI), U266B1; assay type: cell-based, human; conditions: for CI: at ED50
[1] = test system: human pancreatic cancer Capan-1 cell line; test: Cell growth inhibition 2, Capan-1; assay type: cell-based
[2] = test system: human lung cancer A-427 cell line; test: Cell growth inhibition 2, A-427; assay type: cell-based
[3] = test system: human diffuse large B-cell lymphoma DB cell line; test: Cell growth inhibition 2, DB; assay type: cell-based
[4] = test system: human prostate cancer LNCAP.FGC cell line; test: Cell growth inhibition 2, LNCaP.FGC; assay type: cell-based
[5] = test system: human breast cancer MDA-MB-453 cell line; test: Cell growth inhibition 2, MDA-MB-453; assay type: cell-based
[6] = test system: human acute leukemia MV-4-11 cell line; test: Cell growth inhibition 2, MV-4-11; assay type: cell-based; conditions: MV4-11
[7] = test system: human acute T lymphoblastic leukemia CCRF-CEM cell lines; test: Cell growth inhibition 1 (CellTiter-Glo); assay type: cell-based; conditions: culture with test compound 72 hours
[8] = test system: human skin cancer A-431 cell line; test: Cell growth inhibition 2, A-431; assay type: cell-based
[9] = test system: human colon cancer HCT116 cell line; test: Cell growth inhibition 2, HCT116; assay type: cell-based; conditions: HCT-116
[10] = test system: human multiple myeloma U266B1 cell line; test: Cell growth inhibition 2, U266B1; assay type: cell-based
[11] = test system: tumor cell lines shown in Table 48; test: Example 14: combined use with alkylating agent, cell growth inhibition test (IC50 ratio, CI); assay type: cell-based; conditions: for IC50 Ratio: IC50 of Reference Example Compound 55 : IC50 of other compound = 1:value; for CI: at ED50; for Comprehensive Evaluation: combined use with Reference Example Compound 55
[12] = test system: tumor cell lines shown in Table 30; test: Example 5: combined use with steroid, cell growth inhibition test (IC50 ratio, CI); conditions: MM.1S; for IC50 Ratio: IC50 of Reference Example Compound 55 : IC50 of other compound = 1:value; for CI: at ED50; for Comprehensive Evaluation: combined use with Reference Example Compound 55
[13] = test system: tumor cell lines shown in Table 50; test: Example 15: combined use with anthracycline-based antitumor agent, cell growth inhibition test (IC50 ratio, CI); conditions: for IC50 Ratio: IC50 of Reference Example Compound 55 : IC50 of other compound = 1:value; for CI: at ED50; for Comprehensive Evaluation: combined use with Reference Example Compound 55
[14] = test system: tumor cell lines shown in Table 46; test: Example 13: combined use with microtubule inhibitor, cell growth inhibition test (IC50 ratio, CI); assay type: cell-based; conditions: A549; for IC50 Ratio: IC50 of Reference Example Compound 55 : IC50 of other compound = 1:value; for CI: at ED50; for Comprehensive Evaluation: combined use with Reference Example Compound 55
[15] = test system: tumor cell lines shown in Table 32; test: Example 6: combined use with immunomodulator, cell growth inhibition test (IC50 ratio, CI); assay type: cell-based; conditions: MM.1S; for IC50 Ratio: IC50 of Reference Example Compound 55 : IC50 of other compound = 1:value; for CI: at ED50; for Comprehensive Evaluation: combined use with Reference Example Compound 55
[16] = test system: tumor cell lines shown in Table 44; test: Example 12: combined use with platinum-based antitumor agent, cell growth inhibition test (IC50 ratio, CI); conditions: HL-60; for CI: at ED50
[17] = test system: human osteo- and soft tissue sarcoma SJCRH30 cell line; test: Cell growth inhibition 2, SJCRH30; assay type: cell-based
[18] = IC50 of Reference Example Compound 55 : IC50 of other compound = 1:value
[19] = combined use with Reference Example Compound 55
[20] = MV4-11, Reference Example Compound 55:other compound 1:3000
[21] = MV4-11, Reference Example Compound 55:other compound 1:9000
[22] = Reference Example Compound 55:other compound 1:1
[23] = Reference Example Compound 55:other compound 1:10

## CC(C)C[C@H](NC(=O)[C@H](CCc1ccccc1)NC(=O)CN1CCOCC1)C(=O)N[C@@H](Cc1ccccc1)C(=O)N[C@@H](CC(C)C)C(=O)[C@@]1(C)CO1 [Carfilzomib, carfilzomib]
U266B1; [18]
  IC50 Ratio: 0.30
U266B1; Reference Example Compound 55:other compound 1:015
  CI: 0.64
U266B1; Reference Example Compound 55:other compound 1:045
  CI: 0.66
U266B1; [19]
  Comprehensive Evaluation: Synergism (0.3-0.7)

## NS(=O)(=O)OC[C@@H]1C[C@@H](n2ccc3c(N[C@H]4CCc5ccccc54)ncnc32)CC1O (stereo partly drawn) [Comp. Example, N-[(1S)-1-indanyl]-7-[(1R)-3α-hydroxy-4α-(sulfamoyloxymethyl)cyclopentyl]-7H-pyrrolo[2,3-d]pyrimidin-4-amine]
[1]
  IC50: 1500 nM
[2]
  IC50: 180 nM
[3]
  IC50: 560 nM
[4]
  IC50: 410 nM
[5]
  IC50: 1900 nM
[6]
  IC50: 110 nM
[7]
  IC50: 89 nM
[8]
  IC50: 750 nM
[9]
  IC50: 89 nM
[10]
  IC50: 1400 nM

## CN(C)/N=N/c1[nH]cnc1C(N)=O [Dacarbazine, dacarbazine]
[11]; MV4-11
  IC50 Ratio: 6582
  Comprehensive Evaluation: Additive (0.9-1.10)
[11]; [20]
  CI: 0.92
[11]; [21]
  CI: 0.95

## C[C@@H]1C[C@H]2[C@@H]3CCC4=CC(=O)C=C[C@]4(C)[C@@]3(F)[C@@H](O)C[C@]2(C)[C@@]1(O)C(=O)CO [Dexamethasone, dexamethasone]
[12]
  IC50 Ratio: 0.4
  Comprehensive Evaluation: Synergism (0.3-0.7)
[12]; Reference Example Compound 55:other compound 1:0.3
  CI: 0.51
[12]; [22]
  CI: 0.39

## COc1cccc2c1C(=O)c1c(O)c3c(c(O)c1C2=O)C[C@@](O)(C(=O)CO)C[C@@H]3O[C@H]1C[C@H](N)[C@H](O)[C@H](C)O1 [Doxorubicin, doxorubicin]
[13]; HOS
  IC50 Ratio: 2
  Comprehensive Evaluation: Moderate
[13]; HOS, Reference Example Compound 55:other compound 1:1.7
  CI: 0.77
[13]; HOS, Reference Example Compound 55:other compound 1:5
  CI: 0.61

## C=C1C[C@@H]2CC[C@@]34C[C@H]5O[C@H]6[C@@H](O3)[C@H]3O[C@H](CC[C@@H]3O[C@H]6[C@H]5O4)CC(=O)C[C@@H]3[C@@H](OC)[C@@H](C[C@H](O)CN)O[C@H]3C[C@H]3O[C@@H](CC[C@@H]1O2)C[C@@H](C)C3=C [Eribulin, eribulin]
[14]
  IC50 Ratio: 0.01
  Comprehensive Evaluation: Additive (0.9-1.10)
[14]; Reference Example Compound 55:other compound 1:0.01
  CI: 1.02
[14]; Reference Example Compound 55:other compound 1:0.03
  CI: 0.89

## O=P1(NCCCl)OCCCN1CCCl (stereo not shown) [Ifosfamide, ifosfamide]
[11]; MV4-11
  IC50 Ratio: 6315
  Comprehensive Evaluation: Synergism (0.3-0.7)
[11]; [20]
  CI: 0.57
[11]; [21]
  CI: 0.60

## Nc1cccc2c1CN(C1CCC(=O)NC1=O)C2=O (stereo not shown) [Lenalidomide, lenalidomide]
[15]
  IC50 Ratio: 14
  Comprehensive Evaluation: Moderate
[15]; [23]
  CI: 0.75
[15]; Reference Example Compound 55:other compound 1:30
  CI: 0.69

## O=C1[O][Pt]2([NH][C@@H]3CCCC[C@H]3[NH]2)[O]C1=O [Oxaliplatin, oxaliplatin]
[16]; [18]
  IC50 Ratio: 132
[16]; Reference Example Compound 55:other compound 1:100
  CI: 0.65
[16]; Reference Example Compound 55:other compound 1:300
  CI: 0.70
[16]; [19]
  Comprehensive Evaluation: Synergism (0.3-0.7)

## CC(=O)O[C@H]1C(=O)[C@@]2(C)[C@H]([C@H](OC(=O)c3ccccc3)[C@]3(O)C[C@H](OC(=O)[C@H](O)[C@@H](NC(=O)c4ccccc4)c4ccccc4)C(C)=C1C3(C)C)[C@]1(OC(C)=O)CO[C@@H]1C[C@@H]2O [Paclitaxel, paclitaxel]
[14]
  IC50 Ratio: 0.04
  Comprehensive Evaluation: Additive (0.9-1.10)
[14]; Reference Example Compound 55:other compound 1:0.02
  CI: 0.98
[14]; Reference Example Compound 55:other compound 1:0.06
  CI: 0.77

## NCCNc1ccc(NCCN)c2c1C(=O)c1ccncc1C2=O [Pixantrone, pixantrone]
[13]; MM.1S
  IC50 Ratio: 8.4
  Comprehensive Evaluation: Moderate
[13]; MM.1S, Reference Example Compound 55:other compound 1:3.7
  CI: 0.73
[13]; MM.1S, Reference Example Compound 55:other compound 1:11
  CI: 0.84

## Nc1cccc2c1C(=O)N(C1CCC(=O)NC1=O)C2=O (stereo not shown) [Poma1idomide, pomalidomide]
[15]
  IC50 Ratio: 3
  Comprehensive Evaluation: Moderate
[15]; [22]
  CI: 0.81
[15]; Reference Example Compound 55:other compound 1:3
  CI: 0.66

## C[C@]12C=CC(=O)C=C1CC[C@@H]1[C@@H]2[C@@H](O)C[C@@]2(C)[C@H]1CC[C@]2(O)C(=O)CO [Prednisolone, prednisolone]
[12]
  IC50 Ratio: 8.3
  Comprehensive Evaluation: Synergism (0.3-0.7)
[12]; Reference Example Compound 55:other compound 1:3.3
  CI: 0.54
[12]; [23]
  CI: 0.44

## CNc1cc(F)c(C#Cc2cn([C@@H]3O[C@H](CNS(N)(=O)=O)[C@@H](O)[C@H]3O)c3ncnc(N)c23)c(F)c1 [Reference Example 25, 4-Amino-5-[2-[2,6-difluoro-4-(methylamino)phenyl]ethynyl]-7-[(2R,3R,4S,5R)-3,4-dihydroxy-5-[(sulfamoylamino)methyl]tetrahydrofuran-2-yl]pyrrolo[2,3-d]pyrimidine]
[1]
  IC50: 380 nM
[2]
  IC50: 5.4 nM
[3]
  IC50: 120 nM
[4]
  IC50: 500 nM
[5]
  IC50: 480 nM
[6]
  IC50: 11 nM
[17]
  IC50: 5100 nM
[7]
  IC50: 1.7 nM
[8]
  IC50: 120 nM
[9]
  IC50: 6.4 nM
[10]
  IC50: 220 nM

## Nc1ncnc2c1c(C#Cc1c(F)cc(N3CC[C@@H](F)C3)cc1F)cn2[C@@H]1O[C@H](CNS(N)(=O)=O)[C@@H](O)[C@H]1O [Reference Example 29, 4-Amino-5-[2-[2,6-difluoro-4-[(3R)-3-fluoropyrrolidin-1-yl]phenyl]ethynyl]-7-[(2R,3R,4S,5R)-3,4-dihydroxy-5-[(sulfamoylamino)methyl]tetrahydrofuran-2-yl]pyrrolo[2,3-d]pyrimidine]
[1]
  IC50: 560 nM
[2]
  IC50: 49 nM
[3]
  IC50: 150 nM
[4]
  IC50: 280 nM
[5]
  IC50: 640 nM
[6]
  IC50: 20 nM
[17]
  IC50: 6600 nM
[7]
  IC50: 4 nM
[8]
  IC50: 560 nM
[9]
  IC50: 14 nM
[10]
  IC50: 420 nM

## CN1CCOc2c1ccc(F)c2C#Cc1cn([C@@H]2O[C@H](CNS(N)(=O)=O)[C@@H](O)[C@H]2O)c2ncnc(N)c12 [Reference Example 64, 8-[2-[4-Amino-7-[(2R,3R,4S,5R)-3,4-dihydroxy-5-[(sulfamoylamino)methyl]tetrahydrofuran-2-yl]pyrrolo[2,3-d]pyrimidin-5-yl]ethynyl]-7-fluoro-4-methyl-2,3-dihydro-1,4-benzoxazine]
[1]
  IC50: 1200 nM
[2]
  IC50: 91 nM
[3]
  IC50: 110 nM
[4]
  IC50: 680 nM
[5]
  IC50: 140 nM
[6]
  IC50: 32 nM
[17]
  IC50: 560 nM
[7]
  IC50: 5.8 nM
[8]
  IC50: 710 nM
[9]
  IC50: 14 nM

## O=C1CCC(N2C(=O)c3ccccc3C2=O)C(=O)N1 (stereo not shown) [Thalidomide, thalidomide]
[15]
  IC50 Ratio: 6603
  Comprehensive Evaluation: Synergism (0.3-0.7)
[15]; Reference Example Compound 55:other compound 1:900 (only ratio calculated)
  CI: 0.63

## COc1cc2c(cc1O)CCN[C@]21CS[C@@H]2c3c(OC(C)=O)c(C)c4c(c3[C@H](COC1=O)N1[C@@H]2[C@H]2c3c(cc(C)c(OC)c3O)C[C@@H]([C@@H]1O)N2C)OCO4 [Trabectedin, trabectedin]
[11]; HOS
  IC50 Ratio: 0.2
  Comprehensive Evaluation: Additive (0.9-1.10)
[11]; HOS, Reference Example Compound 55:other compound 1:0.1
  CI: 0.83
[11]; HOS, Reference Example Compound 55:other compound 1:0.3
  CI: 1.01
